# Assay results as given in patent US20220127281A1, “HETEROARYL COMPOUNDS THAT INHIBIT G12C MUTANT RAS PROTEINS” (AstraZeneca AB, priority 2017, published 2022).
# Read-outs that look alike come from different tables or passages of the source.
# How the values were obtained:
# [1] = target: T1, GDP loaded biotinylated KRas^G12C protein (Homo sapiens, UniProt P01116, G12C); test: KRasG12C functional assay; format: biochemical; conditions: HTRF FRET readout of SOS-mediated nucleotide exchange and GST-Raf RBD binding, samples incubated for 4 hrs
# T1 construct: biotin (biotinylated); made in house
# T1 sequence (P01116 1-188 isoform P01116-2 G12C): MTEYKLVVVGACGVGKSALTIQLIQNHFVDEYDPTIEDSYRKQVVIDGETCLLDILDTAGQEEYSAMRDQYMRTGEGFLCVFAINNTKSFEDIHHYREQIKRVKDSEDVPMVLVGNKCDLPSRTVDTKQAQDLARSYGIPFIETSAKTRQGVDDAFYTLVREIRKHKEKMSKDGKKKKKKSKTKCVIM
# Method: KRasG12C Functional Assay
# All enzyme and substrate solutions were prepared in assay buffer containing 20 mM HEPES (pH 7.5), 5 mM MgCl2, 150 mM NaCl, and 0.01% Tween 20. […] In a separate mix 20 nM GST-Raf Ras binding domain (GST-Raf RBD, purified in house) and 4 μg/ml anti-GST XL665 antibody (Cisbio) was prepared in assay buffer containing 50 mM Potassium Fluoride and 0.05 mg/ml BSA and equilibrated for 4 hours before adding 0.6 μM Guanosine 5′-[γ-thio]triphosphate (GTPγS, Sigma) and 0.08 μM SOS (purified in house). 5 μl of the GST-RAF RBD mix was then dispensed into each well of the assay plate. […] This is detected simultaneously via the specific binding interaction between active GTPγS KRas^G12C with GST-Raf RBD which brings the europium and XL665 into close proximity enabling an increased FRET signal to be detected on a Pherastar (BMG) plate reader equipped with the HTRF filter module. […] IC50 values were calculated from normalised dose-response response FRET data curve fitted in Genedata screener (Basel, Switzerland).
# [2] = target: T1, GDP loaded biotinylated KRas^G12C protein; test: KRasG12C mass spectrometry adducting assay; format: binding; conditions: test compound final concentration 10 μM, 4 μM KRasG12C, react for 4 hours
# Method: KRasG12C Mass Spectrometry Adducting Assay
# Enzyme solutions were prepared in assay buffer containing 20 mM HEPES (pH 7.5), 5 mM MgCl2, and 150 mM NaCl. […] The plate was sealed before reading on a Xevo G2 QTOF (Waters) and Acquity LC system (Waters). […] Blank samples were run in between each test sample.
# Data was analysed in Mass Lynx software (Waters), the Total ion count (TIC) trace was used and the eluted protein peak data combined. Using the combined spectrum the data was deconvoluted using MaxEnt1 method. The peak area for apo-protein KRas^G12C (APO) and KRAS+relative cmpd mass (adduct) were measured, and a percentage adduct was calculated using the following calculation:
# Percent adduct=100*(area of adduct peak/(sum of APO+adduct peaks)
# [3] = KRasG12C functional assay IC50 value (μM)
# [4] = read-out: KRasG12C functional assay IC50 value
KRasG12C M.S. Binding Mean adduct % [2] [%],"IC50 [1, 4] [µM]",Compound,"IC50 [1, 3] [µM]"
82,1.28,"C=CC(=O)N1CCN2c3ncnc4cc(-c5cc(CO)ccc5F)c(Cl)c(c34)OC[C@@H]2C1 [Example 38, 1-[(8aS)-6-Chloro-5-[2-fluoro-5-(hydroxymethyl)phenyl]-8a,9,11,12-tetrahydropyrazino[2′,1′:3,4][1,4]oxazepino[5,6,7-de]quinazolin-10(8H)-yl]prop-2-en-1-one]",
8,1.9,"C=CC(=O)N1CCN2c3nc(NC4CCN(C5CC5)CC4)nc4cc(-c5c(C)ccc6[nH]ncc56)c(Cl)c(c34)OC[C@@H]2C1 (single isomer, unassigned) [Example 73]",
68,2.42,"C=CC(=O)N1CCN2c3ncnc4cc(-c5cccc6ocnc56)c(Cl)c(c34)OC[C@@H]2C1 [Example 57, 1-[(8aS)-5-(1,3-Benzoxazol-4-yl)-6-chloro-8a,9,11,12-tetrahydropyrazino[2′,1′:3,4][1,4]oxazepino[5,6,7-de]quinazolin-10(8H)-yl]prop-2-en-1-one]",
100,0.479,"C=CC(=O)N1CCN2c3ncnc4cc(-c5ccccc5C)c(Cl)c(c34)OC[C@@H]2C1 [Example 41, 1-[(8aS)-6-Chloro-5-(2-methylphenyl)-8a,9,11,12-tetrahydropyrazino[2′,1′:3,4][1,4]oxazepino[5,6,7-de]quinazolin-10(8H)-yl]prop-2-en-1-one]",
9,9.82,"C=CC(=O)N1CCN2c3ncnc4cc(-c5cccc6oc(=O)n(C)c56)c(Cl)c(c34)OC[C@@H]2C1 [Example 47, 4-[(8aS)-10-Acryloyl-6-chloro-8,8a,9,10,11,12-hexahydropyrazino[2′,1′:3,4][1,4]oxazepino[5,6,7-de]quinazolin-5-yl]-3-methyl-1,3-benzoxazol-2(3H)-one]",
84,1.45,"C=CC(=O)N1CCN2c3ncnc4cc(-c5ccc(F)cc5F)c(Cl)c(c34)OC[C@@H]2C1 [Example 66, 1-[(8aS)-6-Chloro-5-(2,4-difluorophenyl)-8a,9,11,12-tetrahydropyrazino[2′,1′:3,4][1,4]oxazepino[5,6,7-de]quinazolin-10(8H)-yl]prop-2-en-1-one]",
100,0.868,"C=CC(=O)N1CCN2c3ncnc4cc(-c5c(O)cccc5OC)c(Cl)c(c34)OC[C@@H]2C1 (single isomer, unassigned) [Example 18]",
0,4.39,"C=CC(=O)N1CCN2c3ncnc4cc(-c5ccc(O)c(C#N)c5)c(Cl)c(c34)OC[C@@H]2C1 [Example 56, 5-[(8aS)-10-Acryloyl-6-chloro-8,8a,9,10,11,12-hexahydropyrazino[2′,1′:3,4][1,4]oxazepino[5,6,7-de]quinazolin-5-yl]-2-hydroxybenzonitrile]",
91,0.798,"C=CC(=O)N1CCN2c3ncnc4cc(-c5c(C)ccc6[nH]ncc56)cc(c34)OC[C@@H]2C1 [Example 5, 1-[(8aS)-5-(5-Methyl-1H-indazol-4-yl)-8a,9,11,12-tetrahydropyrazino[2′,1′:3,4][1,4]-oxazepino[5,6,7-de]quinazolin-10 (8H)-yl]prop-2-en-1-one]",
100,0.012,"C=CC(=O)N1CCN2c3ncnc4cc(-c5c(C)ccc6[nH]ncc56)c(Cl)c(c34)OCC[C@@H]2C1 (single isomer, unassigned) [Example 81]",
22,9.41,"C=CC(=O)N1CCN2c3ncnc4cc(-c5ccccc5C(=O)NC)c(Cl)c(c34)OC[C@@H]2C1 [Example 30, 2-[(8aS)-10-Acryloyl-6-chloro-8,8a,9,10,11,12-hexahydropyrazino[2′,1′:3,4][1,4]oxazepino[5,6,7-de]quinazolin-5-yl]-N-methylbenzamide]",
100,0.021,"C=CC(=O)N1CCN2c3nc(N4CC(N(C)C)C4)nc4cc(-c5c(C)ccc6[nH]ncc56)c(Cl)c(c34)OC[C@@H]2C1 (single isomer, unassigned) [Example 77]",
73,3.03,"C=CC(=O)N1CCN2c3ncnc4cc(-c5cccc(OC)c5O)c(Cl)c(c34)OC[C@@H]2C1 [Example 27, 1-[(8aS)-6-Chloro-5-(2-hydroxy-3-methoxyphenyl)-8a,9,11,12-tetrahydropyrazino[2′,1′:3,4][1,4]oxazepino[5,6,7-de]quinazolin-10(8H)-yl]prop-2-en-1-one]",
65,1.51,"C=CC(=O)N1CCN2c3ncnc4cc(-c5cn(C)c6ccccc56)c(Cl)c(c34)OC[C@@H]2C1 [Example 46, 1-[(8aS)-6-Chloro-5-(1-methyl-1H-indol-3-yl)-8a,9,11,12-tetrahydropyrazino[2′,1′:3,4][1,4]oxazepino[5,6,7-de]quinazolin-10(8H)-yl]prop-2-en-1-one]",
57,0.019,"C=CC(=O)N1CCN2c3nc(N4CC(N(C)C)C4)nc4cc(-c5c(C)ccc6[nH]ncc56)c(Cl)c(c34)OC[C@@H]2C1 [Example 75, 1-((8aS)-6-chloro-2-(3-(dimethylamino)azetidin-1-yl)-5-(5-methyl-1H-indazol-4-yl)-8a,9,11,12-tetrahydropyrazino[2′,1′:3,4][1,4]oxazepino[5,6,7-de]quinazolin-10 (8H)-yl)prop-2-en-1-one]",
75,1.57,"C=CC(=O)N1CCN2c3ncnc4cc(-c5ccc(F)cc5C)c(Cl)c(c34)OC[C@@H]2C1 [Example 64, 1-[(8aS)-6-Chloro-5-(4-fluoro-2-methylphenyl)-8a,9,11,12-tetrahydropyrazino[2′,1′:3,4][1,4]oxazepino[5,6,7-de]quinazolin-10(8H)-yl]prop-2-en-1-one]",
79,0.803,"C=CC(=O)N1CCN2c3ncnc4cc(-c5cccc6cnn(C)c56)c(Cl)c(c34)OC[C@@H]2C1 [Example 39, 1-[(8aS)-6-Chloro-5-(1-methyl-1H-indazol-7-yl)-8a,9,11,12-tetrahydropyrazino[2′,1′:3,4][1,4]oxazepino[5,6,7-de]quinazolin-10(8H)-yl]prop-2-en-1-one]",
26,4.03,"C=CC(=O)N1CCN2c3ncnc4cc(-c5cnccc5C)c(Cl)c(c34)OC[C@@H]2C1 [Example 55, 1-[(8aS)-6-Chloro-5-(4-methylpyridin-3-yl)-8a,9,11,12-tetrahydropyrazino[2′,1′:3,4][1,4]oxazepino[5,6,7-de]quinazolin-10(8H)-yl]prop-2-en-1-one]",

Compound,KRasG12C M.S. Binding Mean adduct % [2] [%],"IC50 [1, 4] [µM]","IC50 [1, 3] [µM]"
"C=CC(=O)N1CCN2c3ncnc4cc(-c5c(C)ccc6[nH]ncc56)c(Cl)c(c34)OC[C@@H]2C1 [Example 1, 1-[(8aS)-6-Chloro-5-(5-methyl-1H-indazol-4-yl)-8a,9,11,12-tetrahydropyrazino-[2′,1′:3,4][1,4]oxazepino[5,6,7-de]quinazolin-10 (8H)-yl]-2-propen-1-one]",95,,0.102
"C=CC(=O)N1CCN2c3ncnc4cc(-c5c(C)ccc6[nH]ncc56)c(Cl)c(c34)OC[C@@H]2C1 (single isomer, unassigned) [Example 2]",2,,38.9
